The test system of the experiment is P388 leukemia ip, CD2F1 mice, survival T/C. The experiment is described as follows: NCI In Vivo Anticancer Drug Screen. Data for tumor model P388 Leukemia (intraperitoneal) in CD2F1 (CDF1) mice. The conditions noted are these: endpoint: median survival time, higher = longer survival. The essentials: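 Mice carrying the transplanted tumor received test compound or vehicle. Survival was recorded in each group, and the value is the treated-group measurement divided by that of the vehicle-treated control group.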

Setting [1] is: dose: 6.25 mg/kg/injection, schedule: Q01DX009 (ip), vehicle: saline with Tween-80.
Setting [2] is: dose: 12.5 mg/kg/injection, schedule: Q01DX009 (ip), vehicle: saline with Tween-80.
Setting [3] is: dose: 25.0 mg/kg/injection, schedule: Q01DX009 (ip), vehicle: saline with Tween-80.
Where [4] appears, read: dose: 50.0 mg/kg/injection, schedule: Q01DX009 (ip), vehicle: saline with Tween-80.
The mark [5] stands for this setting: dose: 60.0 mg/kg/injection, schedule: Q01DX005 (ip), vehicle: saline with Tween-80.
The mark [6] stands for this setting: dose: 120.0 mg/kg/injection, schedule: Q01DX005 (ip), vehicle: saline with Tween-80.
The mark [7] stands for this setting: dose: 240.0 mg/kg/injection, schedule: Q01DX005 (ip), vehicle: saline with Tween-80.
The mark [8] stands for this setting: dose: 12.5 mg/kg/injection, schedule: Q01DX009 (ip), vehicle: distilled water + Tween-80.
[9] abbreviates: dose: 25.0 mg/kg/injection, schedule: Q01DX009 (ip), vehicle: distilled water + Tween-80.
The mark [10] stands for this setting: dose: 100.0 mg/kg/injection, schedule: Q01DX001 (ip), vehicle: saline with Tween-80.
Setting [11] is: dose: 200.0 mg/kg/injection, schedule: Q01DX001 (ip), vehicle: saline with Tween-80.
Setting [12] is: dose: 100.0 mg/kg/injection, schedule: Q04DX003 (ip), vehicle: saline with Tween-80.
Setting [13] is: dose: 200.0 mg/kg/injection, schedule: Q04DX003 (ip), vehicle: saline with Tween-80.
[14] abbreviates: dose: 400.0 mg/kg/injection, schedule: Q04DX003 (ip), vehicle: saline with Tween-80.
[15] abbreviates: dose: 100.0 mg/kg/injection, schedule: Q01DX009 (ip), vehicle: saline with Tween-80.
Where [16] appears, read: dose: 200.0 mg/kg/injection, schedule: Q01DX009 (ip), vehicle: saline with Tween-80.
[17] abbreviates: dose: 12.5 mg/kg/injection, schedule: Q01DX009 (ip), vehicle: saline.
Setting [18] is: dose: 50.0 mg/kg/injection, schedule: Q01DX009 (ip), vehicle: saline.

Results on 25 compounds are retold here after PubChem BioAssay AID330 (DTP/NCI, 2004).

Several values for one entry are separate records, joined by “and”; a condition that tells them apart may be missing. Equal entries are not always repeated. Toxic doses and inconclusive results are not listed.

Regarding `CN(C)CCCNc1ccc(NCCCN(C)C)c2c1C(=O)c1ccccc1C2=O`, the T/C was 100 % of control (dose: 3.75 mg/kg/injection, schedule: Q01DX009 (ip), vehicle: saline); 102 % of control (dose: 7.5 mg/kg/injection, schedule: Q01DX009 (ip), vehicle: saline); 104 % of control (dose: 12.5 mg/kg/injection, schedule: Q01DX009 (ip), vehicle: water); 102 % of control (dose: 15.0 mg/kg/injection, schedule: Q01DX009 (ip), vehicle: saline); 103 % of control (dose: 25.0 mg/kg/injection, schedule: Q01DX009 (ip), vehicle: water); 100 % of control (dose: 30.0 mg/kg/injection, schedule: Q01DX009 (ip), vehicle: saline). Also, the T/C (dose: 60.0 mg/kg/injection, schedule: Q01DX009 (ip), vehicle: saline) was 100 % of control.

Regarding `COc1ccc(/C=C2/SC(=S)N(C(C)C)C2=O)cc1OC`, the T/C under setting [1] is 88 % of control, the T/C under setting [2] was 90 % of control, the T/C under setting [3] is 94 % of control and the T/C under setting [4] was 88 % of control.

For the compound `COc1nc(NC2OC(COC(C)=O)C(OC(C)=O)C(OC(C)=O)C2OC(C)=O)c(C(=O)CCl)c(=O)[nH]1` (stereo not given), the T/C under setting [5] is 93 % of control, the T/C under setting [6] is 90 % of control and the T/C under setting [7] was 101 % of control.

`C/C([O-])=C(/c1nc(-c2ccc([N+](=O)[O-])o2)no1)[n+]1cc(C)ccc1C`: the T/C was 92 % of control under setting [1], 94 % of control under setting [2], 97 % of control under setting [3] and 94 % of control under setting [4].

Regarding `Cc1nc(C(=O)O)cc(Cl)c1C`, the T/C under setting [8] was 100 % of control; the T/C under setting [9] was 100 % of control; the T/C (dose: 50.0 mg/kg/injection, schedule: Q01DX009 (ip), vehicle: distilled water + Tween-80) is 96 % of control; the T/C (dose: 100.0 mg/kg/injection, schedule: Q01DX009 (ip), vehicle: distilled water + Tween-80) was 100 % of control; the T/C (dose: 200.0 mg/kg/injection, schedule: Q01DX009 (ip), vehicle: distilled water + Tween-80) is 96 % of control.

As for `Cc1ccc2c(c1)nc(-c1ccccn1)n2CCc1ccncc1`, the T/C was 95 % of control (dose: 50.0 mg/kg/injection, schedule: Q01DX001 (ip), vehicle: saline with Tween-80); 96 % of control under setting [10]; 101 % of control under setting [11].

Regarding `CCN1COc2ccc3ccc4c(c3c2C1)CN(CC)CO4`, the T/C (dose: 50.0 mg/kg/injection, schedule: Q01DX005 (ip), vehicle: Klucel (hydroxypropylcellulose) (HPC)) is 101 % of control; the T/C (dose: 100.0 mg/kg/injection, schedule: Q01DX005 (ip), vehicle: Klucel (hydroxypropylcellulose) (HPC)) was 101 % of control; the T/C (dose: 200.0 mg/kg/injection, schedule: Q01DX005 (ip), vehicle: Klucel (hydroxypropylcellulose) (HPC)) was 102 % of control.

`CCCCNC(C)[C@]1(O)Cc2c(O)c3c(c(O)c2[C@@H](OC2CC(N)C(O)C(C)O2)C1)C(=O)c1c(OC)cccc1C3=O` (stereo not given in full): the T/C is, setting by setting: (dose: 1.25 mg/kg/injection, schedule: Q01DX009 (ip), vehicle: water) 154 % of control; (dose: 2.5 mg/kg/injection, schedule: Q01DX009 (ip), vehicle: water) 152 % of control and 170 % of control; (dose: 5.0 mg/kg/injection, schedule: Q01DX009 (ip), vehicle: water) 176 % of control and 190 % of control; (dose: 10.0 mg/kg/injection, schedule: Q01DX009 (ip), vehicle: water) 99 % of control.

On to `COc1ccc2c(c1)CC[C@@H]1[C@@H]2CC[C@]2(C)/C(=N\O)CC[C@@H]12`, for which the T/C reads like this: under setting [12], 90 % of control; under setting [13], 90 % of control; under setting [14], 100 % of control.

`O/N=C\c1ccc(/C=N/O)cc1`: the T/C (dose: 50.0 mg/kg/injection, schedule: Q04DX003 (ip), vehicle: saline with Tween-80) was 100 % of control; the T/C under setting [12] was 100 % of control; the T/C under setting [13] is 95 % of control.

On to `CCC(=O)c1ccc(OS(=O)(=O)O)cc1`, for which the T/C reads like this: (dose: 50.0 mg/kg/injection, schedule: Q01DX009 (ip), vehicle: Klucel (hydroxypropylcellulose) (HPC)) 96 % of control; (dose: 100.0 mg/kg/injection, schedule: Q01DX009 (ip), vehicle: Klucel (hydroxypropylcellulose) (HPC)) 103 % of control; (dose: 200.0 mg/kg/injection, schedule: Q01DX009 (ip), vehicle: Klucel (hydroxypropylcellulose) (HPC)) 99 % of control.

As to `CSCCC(NC(=O)C(F)(F)F)C(=O)O` (stereo not given), the T/C reads like this: under setting [4], 106 % of control; under setting [15], 94 % of control; under setting [16], 94 % of control.

Take `COc1ccccc1NC(=O)CC(=O)N1N=C(N(c2ccccc2)c2ccccc2)CC1c1ccccc1` (stereo not given): the T/C was 108 % of control under setting [5], 107 % of control under setting [6] and 96 % of control under setting [7].

Turning to `CC1CCC23C1CC(CC(=O)C2(C)O)C3(C)C` (stereo not given), the T/C runs as follows: under setting [5], 100 % of control; under setting [6], 97 % of control; under setting [7], 106 % of control.

Turning to `Cc1ccc(C(O)(c2ccc(C)cc2)C(C)(C)O)cc1`, the T/C under setting [5] is 98 % of control, the T/C under setting [6] was 100 % of control and the T/C under setting [7] was 103 % of control.

Consider `CCN(CC)CCOC(=O)Nc1cc(Cl)cc(Cl)c1`, for which the T/C reads like this: under setting [5], 100 % of control; under setting [6], 101 % of control; under setting [7], 100 % of control.

As to `COc1ccc(Cc2nccc3cc(OC)c(OC)cc23)cc1OC`, the T/C by setting is: under setting [17], 104 % of control; under setting [18], 109 % of control.

Consider `CCC[As](CCC)SC1OC(C2COC(C)(C)O2)C2OC(C)(C)OC12` (stereo not given), for which the T/C under setting [8] was 100 % of control and the T/C under setting [9] was 110 % of control.

As for `CCCCCCCCCCCC[N+]1(CC)CCCCCC1`, the T/C runs as follows: (dose: 0.78 mg/kg/injection, schedule: Q01DX009 (ip), vehicle: saline) 113 % of control; (dose: 1.56 mg/kg/injection, schedule: Q01DX009 (ip), vehicle: saline) 111 % of control; (dose: 3.12 mg/kg/injection, schedule: Q01DX009 (ip), vehicle: saline) 92 % of control.

Turning to `CN1CCN2C(=O)CCC2c2cc(Cl)ccc21` (stereo not given), the T/C is 101 % of control under setting [10]; 101 % of control under setting [11]; 101 % of control (dose: 400.0 mg/kg/injection, schedule: Q01DX001 (ip), vehicle: saline with Tween-80).

For the compound `COc1ccc2c(c1)NC(=O)Cn1nnnc1-2`, the T/C is 96 % of control (dose: 25.0 mg/kg/injection, schedule: Q04DX002 (ip), vehicle: saline with Tween-80); 91 % of control (dose: 50.0 mg/kg/injection, schedule: Q04DX002 (ip), vehicle: saline with Tween-80); 96 % of control (dose: 100.0 mg/kg/injection, schedule: Q04DX002 (ip), vehicle: saline with Tween-80); 93 % of control (dose: 400.0 mg/kg/injection, schedule: Q04DX002 (ip), vehicle: saline with Tween-80).

As to `O=C(Oc1ccc[nH]c1=O)C1CC1`, the T/C was 99 % of control and 100 % of control under setting [17]; 101 % of control and 102 % of control (dose: 25.0 mg/kg/injection, schedule: Q01DX009 (ip), vehicle: saline); 98 % of control and 108 % of control under setting [18]; 103 % of control and 106 % of control (dose: 100.0 mg/kg/injection, schedule: Q01DX009 (ip), vehicle: saline); 107 % of control and 117 % of control (dose: 200.0 mg/kg/injection, schedule: Q01DX009 (ip), vehicle: saline); 100 % of control (dose: 400.0 mg/kg/injection, schedule: Q01DX009 (ip), vehicle: saline).

Regarding `O=C(NC(CO)C(=O)O)c1ccccc1` (stereo not given), the T/C by setting is: (dose: 50.0 mg/kg/injection, schedule: Q01DX005 (ip), vehicle: saline) 100 % of control; (dose: 100.0 mg/kg/injection, schedule: Q01DX005 (ip), vehicle: saline) 100 % of control; (dose: 200.0 mg/kg/injection, schedule: Q01DX005 (ip), vehicle: saline) 100 % of control.

Consider `Nc1nc(N)c2cc(Sc3cccc(C(F)(F)F)c3)ccc2n1`, for which the T/C under setting [15] was 172 % of control and the T/C under setting [16] was 94 % of control.

On to `c1ccc2sc(SN3CCOCC3)nc2c1`, for which the T/C under setting [12] is 87 % of control, the T/C under setting [13] is 100 % of control and the T/C under setting [14] was 95 % of control.
